ChEMBL document CHEMBL1201862, “PubChem BioAssay data set” (2004)
Activity calls are given as the source filed them.

What was measured:
[1] = target: Voltage-dependent T-type calcium channel subunit alpha-1H (Homo sapiens, UniProt O95180); assay type: functional;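 also: channel activity triggered by adding a high calcium stimulation buffer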
[2] = target: T1, Estrogen receptor (Homo sapiens, UniProt P03372);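 also: potency for inhibiting coactivator peptide recruitment to the receptor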
T1 sequence (P03372 whole entry): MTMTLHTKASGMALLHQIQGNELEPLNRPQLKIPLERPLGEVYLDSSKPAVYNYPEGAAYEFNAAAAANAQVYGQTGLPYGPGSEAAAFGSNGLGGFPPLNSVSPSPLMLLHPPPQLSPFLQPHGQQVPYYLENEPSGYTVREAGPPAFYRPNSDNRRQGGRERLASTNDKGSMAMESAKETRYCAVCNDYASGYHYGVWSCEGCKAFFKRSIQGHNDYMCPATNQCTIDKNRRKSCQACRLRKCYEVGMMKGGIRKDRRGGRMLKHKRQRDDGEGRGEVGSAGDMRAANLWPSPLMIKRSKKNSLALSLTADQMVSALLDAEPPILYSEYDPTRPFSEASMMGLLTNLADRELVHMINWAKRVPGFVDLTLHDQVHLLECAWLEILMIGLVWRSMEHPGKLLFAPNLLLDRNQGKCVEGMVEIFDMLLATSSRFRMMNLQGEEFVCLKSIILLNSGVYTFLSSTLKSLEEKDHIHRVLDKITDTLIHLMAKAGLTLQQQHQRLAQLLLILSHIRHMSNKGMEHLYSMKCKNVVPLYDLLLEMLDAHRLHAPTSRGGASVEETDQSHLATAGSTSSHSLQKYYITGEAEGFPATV

[3] = target: T2, Peroxisome proliferator-activated receptor gamma/Nuclear receptor coactivator 3 (Homo sapiens, UniProt P37231); assay type: functional
[4] = target: T3, Peroxisome proliferator-activated receptor gamma/Nuclear receptor coactivator 2 (Homo sapiens, UniProt P37231); assay type: functional
[5] = target: T4, Peroxisome proliferator-activated receptor gamma/Nuclear receptor coactivator 1 (Homo sapiens, UniProt P37231); assay type: functional
[6] = target: T5, Mannose-6-phosphate isomerase (Homo sapiens, UniProt P34949); assay: MPI inhibition at elevated mannose 6-phosphate – biochemical, fluorescence intensity, high mannose 6-phosphate, primary screen (AID 1220)
T5 sequence (P34949 whole entry): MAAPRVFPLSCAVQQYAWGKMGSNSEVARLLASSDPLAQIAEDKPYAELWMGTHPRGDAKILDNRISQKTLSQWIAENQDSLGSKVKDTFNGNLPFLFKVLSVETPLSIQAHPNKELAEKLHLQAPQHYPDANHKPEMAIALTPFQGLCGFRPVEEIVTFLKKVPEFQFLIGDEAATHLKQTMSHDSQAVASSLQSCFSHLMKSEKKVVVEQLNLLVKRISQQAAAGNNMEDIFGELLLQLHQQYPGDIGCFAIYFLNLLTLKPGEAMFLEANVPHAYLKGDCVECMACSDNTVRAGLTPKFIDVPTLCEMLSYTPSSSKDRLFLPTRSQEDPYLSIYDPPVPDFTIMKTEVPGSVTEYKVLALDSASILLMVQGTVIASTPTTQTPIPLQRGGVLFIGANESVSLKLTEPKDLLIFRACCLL

[7] = target: Glyceraldehyde-3-phosphate dehydrogenase (Homo sapiens, UniProt P04406)
[8] = target: T6, Alkaline phosphatase, tissue-nonspecific isozyme (Homo sapiens, UniProt P05186); assay: potency against alkaline phosphatase TNAP – biochemical, luminescent, dose response, SAR follow-up (AID 1056)
T6 sequence (P05186 whole entry): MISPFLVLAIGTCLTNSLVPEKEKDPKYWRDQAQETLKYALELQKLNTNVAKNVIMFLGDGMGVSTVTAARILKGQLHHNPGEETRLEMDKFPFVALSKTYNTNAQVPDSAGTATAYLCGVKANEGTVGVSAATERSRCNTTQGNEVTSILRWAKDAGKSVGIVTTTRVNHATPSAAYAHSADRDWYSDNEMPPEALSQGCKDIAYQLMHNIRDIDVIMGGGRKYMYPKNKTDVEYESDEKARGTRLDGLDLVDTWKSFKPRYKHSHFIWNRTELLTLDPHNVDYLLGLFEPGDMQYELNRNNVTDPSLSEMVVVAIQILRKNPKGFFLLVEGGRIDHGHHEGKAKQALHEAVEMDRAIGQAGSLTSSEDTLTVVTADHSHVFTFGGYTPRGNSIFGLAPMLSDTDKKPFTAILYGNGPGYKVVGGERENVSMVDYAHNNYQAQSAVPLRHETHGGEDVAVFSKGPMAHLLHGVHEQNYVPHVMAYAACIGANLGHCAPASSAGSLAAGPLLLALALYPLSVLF

[9] = target: T2, Peroxisome proliferator-activated receptor gamma/Nuclear receptor coactivator 3; assay: TR-FRET dose response biochemical High Throughput Screening assay for agonists of the steroid receptor coactivator 3 (SRC-3) recruitment by the peroxisome proliferator-activated receptor gamma (PPAR gamma): non-selective agonists. [Related pubchem assays: 1301 (Confirmation screen.), 1048 (Primary screen.)]; assay type: functional
[10] = target: T7, Cytochrome P450 2C9 (Homo sapiens, UniProt P11712)
[11] = target: Cytochrome P450 3A4 (Homo sapiens, UniProt P08684);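 also: CYP3A4 tested as one member of a cytochrome P450 panel screen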
[12] = target: T3, Peroxisome proliferator-activated receptor gamma/Nuclear receptor coactivator 2; assay: (§1) TR-FRET dose response biochemical High Throughput Screening assay for agonists of the steroid receptor coactivator 2 (SRC-2) recruitment by the peroxisome proliferator-activated receptor gamma (PPAR gamma): non-selective agonists. [Related pubchem assays: 1297, 1032 ]; assay type: functional
[13] = target: T4, Peroxisome proliferator-activated receptor gamma/Nuclear receptor coactivator 1; assay: as §1, with “1 (SRC-1)” for “2 (SRC-2)”, “assays (depositor defined):AID1300, AID1808, AID504735, AID631]” for “assays: 1297, 1032 ]”; assay type: protein assay
[14] = target: Prothrombin (Homo sapiens, UniProt P00734); assay: Thrombin 1536 HTS Dose Response Confirmation. [Related pubchem assays: 1046 (Thrombin 1536 HTS; hits were confirmed in this assay)]; assay type: functional
[15] = target: Cytochrome P450 2C19 (Homo sapiens, UniProt P33261); assay: Cytochrome panel assay with activity outcomes. Panel member name: p450-cyp2c19 Compounds with AC50 equal or less than 10 uM are considered active; assay type: functional; details: read-out: AC50
[16] = system: Escherichia coli; assay: microbe, parasite or virus in culture
[17] = target: Eukaryotic translation initiation factor 4E (Mus musculus, UniProt P63073); assay: blockers of eIF4G binding by eIF4E – biochemical, TR-FRET, dose response (AID 855); assay type: functional;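 also: potency for disrupting eIF4E binding to eIF4GI seen as loss of FRET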
[18] = target: DNA dC->dU-editing enzyme APOBEC-3G (Homo sapiens, UniProt Q9HC16); assay: Dose Response confirmation of small molecule APOBEC3G DNA Deaminase Inhibitors via a fluorescence-based single-stranded DNA deaminase assay. [Related pubchem assays (depositor defined):AID493012, AID493028]; assay type: functional
[19] = target: Estrogen receptor beta (Homo sapiens, UniProt Q92731);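 also: recombinant ER-beta bound to coactivator SRC1 peptide in presence of estradiol agonist; inhibitors block coactivator peptide binding and lower the FRET signal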
[20] = target: Large T antigen (Simian virus 40, UniProt P03070); assay type: functional, Betapolyomavirus macacae;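 also: Confirmatory-stage PubChem screen for compounds that inhibit SV40 T antigen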
[21] = target: Induced myeloid leukemia cell differentiation protein Mcl-1 (Homo sapiens, UniProt Q07820); assay type: functional
[22] = target: Dual specificity tyrosine-phosphorylation-regulated kinase 1A (Rattus norvegicus, UniProt Q63470); assay type: biochemical, Homo sapiens
[23] = target: T8, CAAX prenyl protease 2 (Saccharomyces cerevisiae S288c, UniProt Q03530); assay type: biochemical
T8 sequence (Q03530 whole entry): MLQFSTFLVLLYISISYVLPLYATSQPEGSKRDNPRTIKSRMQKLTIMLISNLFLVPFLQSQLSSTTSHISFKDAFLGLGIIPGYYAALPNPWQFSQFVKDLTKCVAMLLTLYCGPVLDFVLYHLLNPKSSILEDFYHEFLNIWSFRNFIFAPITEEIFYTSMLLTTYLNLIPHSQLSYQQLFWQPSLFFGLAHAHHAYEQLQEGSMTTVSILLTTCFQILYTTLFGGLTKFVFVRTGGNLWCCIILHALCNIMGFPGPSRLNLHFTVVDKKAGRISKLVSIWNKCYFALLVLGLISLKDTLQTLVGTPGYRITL

[24] = target: T7, Cytochrome P450 2C9; remark: listed apart in the source
[25] = target: FAD-linked sulfhydryl oxidase ALR (Homo sapiens, UniProt P55789); assay: ALR-catalysed DTT oxidation blockers – biochemical, H2O2 detection, luminescence, cherry-pick, dose response (AID 493248)

Voltage-dependent T-type calcium channel subunit alpha-1H, sequence (O95180 whole entry): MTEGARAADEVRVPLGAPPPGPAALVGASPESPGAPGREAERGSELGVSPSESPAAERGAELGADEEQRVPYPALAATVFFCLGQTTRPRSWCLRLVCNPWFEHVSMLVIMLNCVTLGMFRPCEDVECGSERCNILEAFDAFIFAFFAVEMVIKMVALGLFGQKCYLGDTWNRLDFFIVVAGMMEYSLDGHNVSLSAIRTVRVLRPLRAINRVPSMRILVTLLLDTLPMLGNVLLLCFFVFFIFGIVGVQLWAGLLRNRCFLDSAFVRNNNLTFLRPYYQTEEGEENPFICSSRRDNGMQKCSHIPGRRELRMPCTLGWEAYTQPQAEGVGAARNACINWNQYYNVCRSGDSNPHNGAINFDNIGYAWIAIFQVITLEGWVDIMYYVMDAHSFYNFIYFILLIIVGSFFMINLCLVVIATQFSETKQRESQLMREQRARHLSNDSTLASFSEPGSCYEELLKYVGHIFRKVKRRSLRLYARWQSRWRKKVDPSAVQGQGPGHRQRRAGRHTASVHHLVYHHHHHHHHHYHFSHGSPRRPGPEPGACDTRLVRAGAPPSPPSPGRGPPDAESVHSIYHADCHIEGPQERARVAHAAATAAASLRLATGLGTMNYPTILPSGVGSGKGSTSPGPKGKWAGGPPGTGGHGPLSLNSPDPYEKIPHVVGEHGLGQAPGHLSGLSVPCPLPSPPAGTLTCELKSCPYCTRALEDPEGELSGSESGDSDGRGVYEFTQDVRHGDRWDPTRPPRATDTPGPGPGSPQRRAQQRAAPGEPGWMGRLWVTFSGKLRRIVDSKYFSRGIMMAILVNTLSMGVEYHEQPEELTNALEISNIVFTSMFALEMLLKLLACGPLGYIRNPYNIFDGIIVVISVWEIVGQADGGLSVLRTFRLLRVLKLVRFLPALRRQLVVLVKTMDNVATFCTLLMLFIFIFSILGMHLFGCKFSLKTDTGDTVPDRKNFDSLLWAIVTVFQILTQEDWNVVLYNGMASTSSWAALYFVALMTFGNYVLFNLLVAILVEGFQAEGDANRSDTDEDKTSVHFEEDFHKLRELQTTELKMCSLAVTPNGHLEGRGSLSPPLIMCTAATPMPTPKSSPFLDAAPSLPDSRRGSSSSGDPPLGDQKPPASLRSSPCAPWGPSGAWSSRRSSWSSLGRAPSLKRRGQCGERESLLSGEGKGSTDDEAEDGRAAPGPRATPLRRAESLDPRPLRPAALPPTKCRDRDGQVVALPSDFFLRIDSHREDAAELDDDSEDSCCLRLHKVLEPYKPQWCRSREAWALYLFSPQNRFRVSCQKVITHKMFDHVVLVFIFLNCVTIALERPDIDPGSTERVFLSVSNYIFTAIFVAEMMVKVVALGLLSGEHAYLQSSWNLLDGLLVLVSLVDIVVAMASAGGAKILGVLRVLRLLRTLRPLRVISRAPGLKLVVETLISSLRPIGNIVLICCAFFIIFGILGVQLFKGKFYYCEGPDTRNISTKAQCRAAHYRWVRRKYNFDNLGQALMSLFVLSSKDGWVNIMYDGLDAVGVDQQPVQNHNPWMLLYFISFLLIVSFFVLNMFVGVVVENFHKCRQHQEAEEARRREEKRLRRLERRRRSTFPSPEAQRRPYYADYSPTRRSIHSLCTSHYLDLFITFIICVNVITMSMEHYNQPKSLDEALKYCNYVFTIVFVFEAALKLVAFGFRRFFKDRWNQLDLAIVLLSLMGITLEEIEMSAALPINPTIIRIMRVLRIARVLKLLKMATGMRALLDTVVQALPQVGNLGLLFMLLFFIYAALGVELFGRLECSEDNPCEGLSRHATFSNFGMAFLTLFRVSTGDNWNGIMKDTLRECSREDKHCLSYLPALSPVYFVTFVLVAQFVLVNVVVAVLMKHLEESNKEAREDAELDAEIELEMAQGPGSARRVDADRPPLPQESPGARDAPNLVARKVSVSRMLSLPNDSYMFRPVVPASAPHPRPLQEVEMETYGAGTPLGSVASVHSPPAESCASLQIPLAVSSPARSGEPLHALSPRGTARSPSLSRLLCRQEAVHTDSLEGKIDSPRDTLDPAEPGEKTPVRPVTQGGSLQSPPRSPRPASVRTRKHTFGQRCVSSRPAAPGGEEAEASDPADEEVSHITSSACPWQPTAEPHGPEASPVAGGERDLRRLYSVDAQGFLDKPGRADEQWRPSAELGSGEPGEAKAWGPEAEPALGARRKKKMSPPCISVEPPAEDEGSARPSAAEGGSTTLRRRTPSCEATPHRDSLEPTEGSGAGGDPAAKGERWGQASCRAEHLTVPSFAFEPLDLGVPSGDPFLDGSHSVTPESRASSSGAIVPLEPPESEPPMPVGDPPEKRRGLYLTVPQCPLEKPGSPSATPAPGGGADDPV
Glyceraldehyde-3-phosphate dehydrogenase, sequence (P04406 whole entry): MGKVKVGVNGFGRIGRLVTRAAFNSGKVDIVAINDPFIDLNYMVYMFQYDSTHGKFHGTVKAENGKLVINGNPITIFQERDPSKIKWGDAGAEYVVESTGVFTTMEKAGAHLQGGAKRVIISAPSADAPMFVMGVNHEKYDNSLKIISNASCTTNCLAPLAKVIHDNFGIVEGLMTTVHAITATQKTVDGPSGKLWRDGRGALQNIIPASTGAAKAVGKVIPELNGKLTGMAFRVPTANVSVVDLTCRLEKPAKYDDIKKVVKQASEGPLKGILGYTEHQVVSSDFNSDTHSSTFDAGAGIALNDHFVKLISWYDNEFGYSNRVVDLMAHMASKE
T3 sequence (P37231 whole entry): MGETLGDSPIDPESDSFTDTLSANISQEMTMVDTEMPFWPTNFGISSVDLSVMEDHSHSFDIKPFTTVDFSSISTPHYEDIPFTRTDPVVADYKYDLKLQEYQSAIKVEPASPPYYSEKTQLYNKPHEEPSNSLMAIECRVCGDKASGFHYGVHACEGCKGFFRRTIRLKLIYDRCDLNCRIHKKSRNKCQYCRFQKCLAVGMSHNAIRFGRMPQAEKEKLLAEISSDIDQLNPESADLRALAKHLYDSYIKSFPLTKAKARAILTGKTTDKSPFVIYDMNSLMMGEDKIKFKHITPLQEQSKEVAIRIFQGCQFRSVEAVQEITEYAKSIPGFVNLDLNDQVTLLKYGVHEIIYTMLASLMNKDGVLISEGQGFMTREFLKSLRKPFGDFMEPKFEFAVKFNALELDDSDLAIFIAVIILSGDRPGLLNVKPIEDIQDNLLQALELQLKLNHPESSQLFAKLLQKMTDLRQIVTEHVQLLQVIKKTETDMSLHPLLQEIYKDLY
T3 sequence (Q15596 whole entry, further chain): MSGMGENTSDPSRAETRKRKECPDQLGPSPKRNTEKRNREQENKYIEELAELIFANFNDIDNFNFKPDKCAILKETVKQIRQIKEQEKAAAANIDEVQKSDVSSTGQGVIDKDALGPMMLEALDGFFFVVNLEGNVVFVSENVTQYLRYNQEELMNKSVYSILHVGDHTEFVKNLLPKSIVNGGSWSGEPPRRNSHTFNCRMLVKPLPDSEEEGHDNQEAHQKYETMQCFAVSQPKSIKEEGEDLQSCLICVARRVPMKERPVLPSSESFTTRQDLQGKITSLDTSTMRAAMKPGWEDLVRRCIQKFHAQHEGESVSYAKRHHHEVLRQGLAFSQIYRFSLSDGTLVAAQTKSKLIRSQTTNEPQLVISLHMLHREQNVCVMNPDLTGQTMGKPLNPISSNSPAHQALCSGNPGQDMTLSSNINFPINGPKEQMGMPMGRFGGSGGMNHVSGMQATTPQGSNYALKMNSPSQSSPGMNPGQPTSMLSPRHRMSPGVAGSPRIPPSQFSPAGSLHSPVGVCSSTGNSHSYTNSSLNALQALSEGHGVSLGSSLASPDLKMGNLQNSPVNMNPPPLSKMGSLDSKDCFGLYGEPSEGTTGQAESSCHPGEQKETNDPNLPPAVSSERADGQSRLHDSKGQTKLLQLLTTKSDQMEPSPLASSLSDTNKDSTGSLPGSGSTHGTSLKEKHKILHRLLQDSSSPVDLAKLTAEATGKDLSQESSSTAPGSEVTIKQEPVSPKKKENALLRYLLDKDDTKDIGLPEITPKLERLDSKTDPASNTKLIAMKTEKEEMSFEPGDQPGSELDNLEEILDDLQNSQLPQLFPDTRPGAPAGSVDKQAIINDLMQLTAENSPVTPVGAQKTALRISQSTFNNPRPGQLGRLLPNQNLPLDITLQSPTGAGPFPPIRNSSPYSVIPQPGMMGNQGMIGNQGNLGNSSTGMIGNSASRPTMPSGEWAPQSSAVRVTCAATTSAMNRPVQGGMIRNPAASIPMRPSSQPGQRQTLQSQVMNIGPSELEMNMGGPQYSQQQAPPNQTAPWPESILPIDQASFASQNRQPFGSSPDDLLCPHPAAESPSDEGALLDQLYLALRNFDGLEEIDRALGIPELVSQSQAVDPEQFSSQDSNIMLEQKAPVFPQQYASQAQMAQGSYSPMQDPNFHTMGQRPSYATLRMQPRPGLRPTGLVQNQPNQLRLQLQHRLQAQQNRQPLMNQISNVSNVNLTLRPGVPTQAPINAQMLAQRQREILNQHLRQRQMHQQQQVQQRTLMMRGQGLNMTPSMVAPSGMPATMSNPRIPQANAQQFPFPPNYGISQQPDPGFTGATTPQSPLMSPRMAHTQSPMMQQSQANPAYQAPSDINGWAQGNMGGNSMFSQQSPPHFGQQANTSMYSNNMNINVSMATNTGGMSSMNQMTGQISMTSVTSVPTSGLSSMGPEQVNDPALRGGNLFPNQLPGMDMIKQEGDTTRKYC
Induced myeloid leukemia cell differentiation protein Mcl-1, sequence (Q07820 whole entry): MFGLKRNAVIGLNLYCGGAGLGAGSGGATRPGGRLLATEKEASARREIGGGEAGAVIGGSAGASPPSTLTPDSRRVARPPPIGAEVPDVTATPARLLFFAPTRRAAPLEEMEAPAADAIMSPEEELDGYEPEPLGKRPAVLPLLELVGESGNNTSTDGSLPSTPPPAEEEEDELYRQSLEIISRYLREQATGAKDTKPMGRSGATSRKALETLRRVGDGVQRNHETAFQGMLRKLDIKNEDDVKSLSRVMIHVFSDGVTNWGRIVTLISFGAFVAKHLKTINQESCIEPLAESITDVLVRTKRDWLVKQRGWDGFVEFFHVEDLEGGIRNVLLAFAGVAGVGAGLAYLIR

## O=C(Nc1ccccc1Cl)C1CCN(Cc2cnn(-c3ccccc3)c2-n2cccc2)CC1
[1]
  EC50: 2.74 µM (active)

## COc1ccc(-c2cc(-c3cccs3)c(C#N)c(SCC(=O)NCc3ccco3)n2)cc1
[2]
  IC50: > 50 µM (not active)

## COc1cccc(/C=c2/s/c(=C(\C#N)C(=O)N3CCOCC3)n(-c3ccccc3)c2=O)c1
[3]
  EC50: > 79.4 µM (not active)
[4]
  EC50: > 79.4 µM (not active)
[5]
  EC50: > 79.4 µM (not active)

## C(=N\c1cccc2c(/N=C/c3ccco3)cccc12)/c1ccco1
[6]
  IC50: > 50 µM (not active)

## O=C(O)c1cc(-c2ccc(O)cc2)n[nH]1
[7]
  IC50: > 100 µM (not active)
[8]
  IC50: 14 µM (active)

## N#Cc1c(-c2ccccc2)cc(C2CC2)nc1SCC(=O)c1cccs1
[9]
  EC50: 20.6 µM (not active)
[10]
  AC50: 0.0447 µM (inconclusive)
[11]
  AC50: 14.1 µM (inconclusive)
[12]
  EC50: 7.18 µM (active)
[13]
  EC50: 7.51 µM (active)

## COc1cccc(C(=O)n2c(SC)nc3cc4c(cc32)OCCO4)c1
[14]
  IC50: 0.0235 µM (active)
[15]
  AC50: 35.5 µM (inconclusive)

## O=C(NCc1ccco1)c1cnc2ccc(S(=O)(=O)N3CCOCC3)cc2c1O
[14]
  IC50: 0.943 µM (active)

## O=C(NCc1ccccn1)c1cn(-c2ccccc2)nc1-c1ccc(Cl)cc1
[14]
  IC50: > 50 µM (not active)

## CCOC(=O)c1c(NC(=O)CSc2nnc(CNc3ccc(F)cc3)o2)sc(C(C)=O)c1C
[3]
  EC50: > 79.4 µM (not active)
[4]
  EC50: 42.5 µM (not active)
[5]
  EC50: 54.3 µM (not active)

## Cc1ccc(C(=O)N2CC2C)cc1 (stereo unspecified)
[16]
  AC50: 25.4 µM (active)

## O=C(CSc1cccc(C(F)(F)F)c1)NC(=O)NCc1ccco1
[1]
  EC50: 1.67 µM (active)
[2]
  IC50: > 50 µM (not active)

## CN(CCCNC(=O)CSc1cc(=O)n(C)c2ccc(Cl)cc12)Cc1ccccc1
[9]
  EC50: > 79.4 µM (not active)
[12]
  EC50: > 79.4 µM (not active)
[13]
  EC50: > 79.4 µM (inactive)

## Clc1ccc(Cl)c(-c2nn3c(COc4ccccc4)nnc3s2)c1
[17]
  IC50: > 64 µM (inactive)
[18]
  IC50: 37 µM (active)

## COc1ccc(/C=C/C(=O)OCc2cc(=O)n3c(n2)sc2ccccc23)cc1
[16]
  AC50: > 150 µM (inactive)

## CCOc1ccc(C(=O)CCN2CCCCC2)cc1
[19]
  IC50: > 50 µM (not active)

## Cn1c(S)nnc1-c1sc2cc(C(F)(F)F)cnc2c1-c1cccs1
[9]
  EC50: 34 µM (not active)
[12]
  EC50: 12.6 µM (not active)
[13]
  EC50: 6.65 µM (active)

## COc1ccc(N2CCC(CNC(=O)Nc3cccc(OC)c3)C2)cc1 (stereo unspecified)
[6]
  IC50: > 50 µM (not active)
[20]
  IC50: 43.3 µM (active)
[21]
  IC50: 3.18 µM (not active)

## CC(=O)Nc1cccc(NC(=O)c2cc3ccccc3o2)c1
[22]
  AC50: 11.5 µM (active)

## Cc1cc2cc(CCNC(=O)c3c(-c4ccccc4Cl)noc3C)c(=O)[nH]c2cc1C
[1]
  EC50: 4.77 µM (active)

## Cn1c(=O)cc(SCC(=O)NCCCN2CCN(c3ccccc3F)CC2)c2ccccc21
[9]
  EC50: > 79.4 µM (not active)
[12]
  EC50: > 79.4 µM (not active)
[13]
  EC50: > 79.4 µM (inactive)

## COc1cc(OC)c(C2CC(=O)N3CN(C)CSC3=C2C#N)cc1OC (stereo unspecified)
[6]
  IC50: 23.1 µM (active)
[20]
  IC50: 61.1 µM (active)

## CC(CO)(CO)NCc1ccc(-c2ccccc2)cc1
[14]
  IC50: > 50 µM (not active)

## COc1cccc(Cc2nnc(N3C(=O)[C@H]4CC=CC[C@H]4C3=O)[nH]2)c1
[7]
  IC50: > 100 µM (not active)
[8]
  IC50: 2.48 µM (active)

## O=C(Oc1ccc2c(c1)OCC2=O)c1ccccc1
[19]
  IC50: > 50 µM (not active)

## CCCn1cc(SCC(=O)Nc2ccc3c(c2)OCO3)c2ccccc21
[1]
  EC50: 5.11 µM (active)

## CN(C)CCN(C(=O)c1ccc2ccccc2c1)c1nc2ccc(F)cc2s1
[23]
  AC50: 6.44 µM (active)

## C[N+](C)(CCOc1ccccc1)Cc1ccccc1.O=C([O-])c1cc2ccccc2c(Br)c1O
[22]
  AC50: 0.517 µM (active)

## CCc1nc(/C=C2\C(=O)Nc3ccccc32)c[nH]1
[22]
  AC50: 10.5 µM (active)

## CC(C(=O)NCc1ccc2c(c1)OCO2)N1c2cccc3cccc(c23)S1(=O)=O (stereo unspecified)
[1]
  EC50: 9.35 µM (active)
[24]
  AC50: inconclusive

## O=C(NCc1ccccc1)c1[nH]cnc1C(=O)N1CCN(c2ccccc2)CC1
[16]
  AC50: 38.8 µM (active)
[25]
  AC50: 6.21 µM (active)

## COc1ccc(-c2cc(C(=O)O)n[nH]2)cc1
[7]
  IC50: > 100 µM (not active)
[8]
  IC50: 6.72 µM (active)

## Cc1ccc(C)c(NC(=O)CCN2CCc3ccccc3C2)c1
[16]
  AC50: 58.7 µM (active)

## COc1ccc(C(=O)C(C)(C)NO)cc1
[3]
  EC50: > 79.4 µM (not active)
[4]
  EC50: > 79.4 µM (not active)
[5]
  EC50: > 79.4 µM (not active)
